Experiments:
Mus musculus [1] = assay: Analgesic activity in mouse assessed as protection against acetic acid-induced writhing at one-tenth of LD50 administered subcutaneously 30 mins before acetic acid challenge measured after 4 hrs relative to control; type: functional
Rattus norvegicus [2] = assay: Antipyretic activity against yeast-induced hyperpyrexia in hyperthermic rat assessed as rectal temperature at one-tenth of LD50 administered subcutaneously 18 hrs after yeast challenge measured after 1 hr (Rvb=39.24 +/- 0.22 degC); type: functional
Rattus norvegicus [3] = assay: Antipyretic activity against yeast-induced hyperpyrexia in hyperthermic rat assessed as rectal temperature at one-tenth of LD50 administered subcutaneously 18 hrs after yeast challenge measured after 2 hrs (Rvb=39.11 +/- 0.26 degC); type: functional
Rattus norvegicus [4] = assay: Antipyretic activity against yeast-induced hyperpyrexia in hyperthermic rat assessed as rectal temperature at one-tenth of LD50 administered subcutaneously 18 hrs after yeast challenge measured after 3 hrs (Rvb=39.20 +/- 0.24 degC); type: functional
Rattus norvegicus [5] = assay: Antipyretic activity against yeast-induced hyperpyrexia in hyperthermic rat assessed as rectal temperature at one-tenth of LD50 administered subcutaneously 18 hrs after yeast challenge measured after 4 hrs (Rvb=39.17 +/- 0.20 degC); type: functional
[6] = Toxicity in sc dosed albino mouse up to 24 hrs; type: organism-based; conditions: in vivo
Rattus norvegicus [7] = assay: Antiinflammatory activity against carrageenan-induced foot paw edema in rat assessed as reduction in paw size at one-tenth of LD50 administered subcutaneously 30 mins before carrageenan challenge measured after 3 hrs relative to control; type: functional; design: scale not given: the % may be the effect or the level left
Mus musculus [8] = assay: Analgesic activity in mouse assessed as protection against acetic acid-induced writhing at one-tenth of LD50 administered subcutaneously 30 mins before acetic acid challenge measured after 1 hr relative to control; type: functional
Mus musculus [9] = assay: Analgesic activity in mouse assessed as protection against acetic acid-induced writhing at one-tenth of LD50 administered subcutaneously 30 mins before acetic acid challenge measured after 2 hrs relative to control; type: functional
Mus musculus [10] = assay: Analgesic activity in mouse assessed as protection against acetic acid-induced writhing at one-tenth of LD50 administered subcutaneously 30 mins before acetic acid challenge measured after 3 hrs relative to control; type: functional
Rattus norvegicus [11] = assay: Antipyretic activity against yeast-induced hyperpyrexia in hyperthermic rat assessed as rectal temperature at 100 mg/kg, sc administered 18 hrs after yeast challenge measured after 1 hr (Rvb=39.24 +/- 0.22 degC); type: functional; conditions: route subcutaneous
Rattus norvegicus [12] = assay: Antipyretic activity against yeast-induced hyperpyrexia in hyperthermic rat assessed as rectal temperature at 100 mg/kg, sc administered 18 hrs after yeast challenge measured after 2 hrs (Rvb=39.11 +/- 0.26 degC); type: functional; conditions: route subcutaneous
Rattus norvegicus [13] = assay: Antipyretic activity against yeast-induced hyperpyrexia in hyperthermic rat assessed as rectal temperature at 100 mg/kg, sc administered 18 hrs after yeast challenge measured after 3 hrs (Rvb=39.20 +/- 0.24 degC); type: functional; conditions: route subcutaneous
Rattus norvegicus [14] = assay: Antipyretic activity against yeast-induced hyperpyrexia in hyperthermic rat assessed as rectal temperature at 100 mg/kg, sc administered 18 hrs after yeast challenge measured after 4 hrs (Rvb=39.17 +/- 0.20 degC); type: functional; conditions: route subcutaneous
Rattus norvegicus [15] = assay: Antiinflammatory activity against carrageenan-induced foot paw edema in rat assessed as reduction in paw size at 20 mg/kg, sc administered 30 mins before carrageenan challenge measured after 3 hrs relative to control; type: functional; design: scale not given: the % may be the effect or the level left; conditions: route subcutaneous
Mus musculus [16] = assay: Analgesic activity in mouse assessed as protection against acetic acid-induced writhing at 5 mg/kg, sc administered 30 mins before acetic acid challenge measured after 1 hr relative to control; type: functional; conditions: route subcutaneous
Mus musculus [17] = assay: Analgesic activity in mouse assessed as protection against acetic acid-induced writhing at 5 mg/kg, sc administered 30 mins before acetic acid challenge measured after 2 hrs relative to control; type: functional; conditions: route subcutaneous
Mus musculus [18] = assay: Analgesic activity in mouse assessed as protection against acetic acid-induced writhing at 5 mg/kg, sc administered 30 mins before acetic acid challenge measured after 3 hrs relative to control; type: functional; conditions: route subcutaneous
Mus musculus [19] = assay: Analgesic activity in mouse assessed as protection against acetic acid-induced writhing at 5 mg/kg, sc administered 30 mins before acetic acid challenge measured after 4 hrs relative to control; type: functional; conditions: route subcutaneous

`N#Cc1c(-c2ccccc2O)cc(-c2c(O)ccc3c(-c4ccccc4)cc(=O)oc23)[nH]c1=O` gave an Activity (Mus musculus [1]) of 6.38%, an Activity (Rattus norvegicus [2]) of 38.34 °C and an Activity (Rattus norvegicus [3]) of 38.2 °C. The Activity (Rattus norvegicus [4]) was 38.47 °C, the Activity (Rattus norvegicus [5]) was 38.91 °C and the LD50 at 24 h [6] was 290 mg/kg. For the same compound, the Activity (Rattus norvegicus [7]) was 4.33%, the Activity (Mus musculus [8]) was 41.84% and the Activity (Mus musculus [9]) was 30.49%. The Activity (Mus musculus [10]) was 19.14%.

`N#Cc1c(-c2cccnc2)cc(-c2c(O)ccc3c(-c4ccccc4)cc(=O)oc23)[nH]c1=N` showed an Activity (Mus musculus [1]) of 5.15%, an Activity (Rattus norvegicus [2]) of 39.11 °C and an Activity (Rattus norvegicus [3]) of 38.94 °C. For the same compound, the Activity (Rattus norvegicus [4]) was 38.91 °C, the Activity (Rattus norvegicus [5]) was 38.91 °C and the LD50 at 24 h [6] was 370 mg/kg. It also gave an Activity (Rattus norvegicus [7]) of 16.21%, an Activity (Mus musculus [8]) of 7.49% and an Activity (Mus musculus [9]) of 7.02%. For the same compound, the Activity (Mus musculus [10]) was 5.15%.

For `CN(C)c1ccc(-c2cc(-c3c(O)ccc4c(-c5ccccc5)cc(=O)oc34)[nH]c(=N)c2C#N)cc1`, the Activity (Mus musculus [1]) was 3.76%, the Activity (Rattus norvegicus [2]) was 38.38 °C and the Activity (Rattus norvegicus [3]) was 38.17 °C. The Activity (Rattus norvegicus [4]) was 38.39 °C, the Activity (Rattus norvegicus [5]) was 38.89 °C and the LD50 at 24 h [6] was 310 mg/kg. The Activity (Rattus norvegicus [7]) was 18.85%, the Activity (Mus musculus [8]) was 9.41% and the Activity (Mus musculus [9]) was 12%. The Activity (Mus musculus [10]) was 11.52%.

Work on `CN(C)c1ccc(-c2cc(-c3c(O)ccc4c(-c5ccccc5)cc(=O)oc34)[nH]c(=O)c2C#N)cc1` yielded an Activity (Mus musculus [1]) of 2.35%, an Activity (Rattus norvegicus [2]) of 38.91 °C and an Activity (Rattus norvegicus [3]) of 38.91 °C. For the same compound, the Activity (Rattus norvegicus [4]) was 38.9 °C, the Activity (Rattus norvegicus [5]) was 39.11 °C and the LD50 at 24 h [6] was 390 mg/kg. For the same compound, the Activity (Rattus norvegicus [7]) was 7.24%, the Activity (Mus musculus [8]) was 9.66% and the Activity (Mus musculus [9]) was 7.54%. For the same compound, the Activity (Mus musculus [10]) was 7.54%.

Work on `N#Cc1c(-c2ccccc2O)cc(-c2c(O)ccc3c(-c4ccccc4)cc(=O)oc23)[nH]c1=N` yielded an Activity (Mus musculus [1]) of 2.58%, an Activity (Rattus norvegicus [2]) of 39.01 °C and an Activity (Rattus norvegicus [3]) of 38.91 °C. For the same compound, the Activity (Rattus norvegicus [4]) was 38.91 °C, the Activity (Rattus norvegicus [5]) was 38.94 °C and the LD50 at 24 h [6] was 310 mg/kg. For the same compound, the Activity (Rattus norvegicus [7]) was 16.31%, the Activity (Mus musculus [8]) was 9.62% and the Activity (Mus musculus [9]) was 9.38%. For the same compound, the Activity (Mus musculus [10]) was 9.62%.

`COc1cc(OC)c(-c2cc(-c3c(O)ccc4c(-c5ccccc5)cc(=O)oc34)[nH]c(=O)c2C#N)c(OC)c1` gave an Activity (Mus musculus [1]) of 1.41%, an Activity (Rattus norvegicus [2]) of 38.91 °C and an Activity (Rattus norvegicus [3]) of 38.91 °C. For the same compound, the Activity (Rattus norvegicus [4]) was 38.81 °C, the Activity (Rattus norvegicus [5]) was 38.91 °C and the LD50 at 24 h [6] was 390 mg/kg. It also gave an Activity (Rattus norvegicus [7]) of 5.78%, an Activity (Mus musculus [8]) of 0.47% and an Activity (Mus musculus [9]) of 0.7%. It also gave an Activity (Mus musculus [10]) of 0.7%.

Compound `COc1ccc(-c2cc(-c3c(O)ccc4c(-c5ccccc5)cc(=O)oc34)[nH]c(=N)c2C#N)cc1` has an Activity (Mus musculus [1]) of 1.88%, an Activity (Rattus norvegicus [2]) of 38.9 °C and an Activity (Rattus norvegicus [3]) of 38.81 °C. It also gave an Activity (Rattus norvegicus [4]) of 38.81 °C, an Activity (Rattus norvegicus [5]) of 38.91 °C and an LD50 at 24 h [6] of 330 mg/kg. The Activity (Rattus norvegicus [7]) was 15.94%, the Activity (Mus musculus [8]) was 4.7% and the Activity (Mus musculus [9]) was 0.7%. For the same compound, the Activity (Mus musculus [10]) was 1.17%.

`N#Cc1c(-c2ccc(Cl)cc2)cc(-c2c(O)ccc3c(-c4ccccc4)cc(=O)oc23)[nH]c1=N` gave an Activity (Mus musculus [1]) of 3.52%, an Activity (Rattus norvegicus [2]) of 38.91 °C and an Activity (Rattus norvegicus [3]) of 39 °C. The Activity (Rattus norvegicus [4]) was 38.84 °C, the Activity (Rattus norvegicus [5]) was 38.91 °C and the LD50 at 24 h [6] was 390 mg/kg. The Activity (Rattus norvegicus [7]) was 4.7%, the Activity (Mus musculus [8]) was 3.28% and the Activity (Mus musculus [9]) was 2.58%. For the same compound, the Activity (Mus musculus [10]) was 5.39%.

Work on `N#Cc1c(-c2cccnc2)cc(-c2c(O)ccc3c(-c4ccccc4)cc(=O)oc23)[nH]c1=O` yielded an Activity (Mus musculus [1]) of 0.95%, an Activity (Rattus norvegicus [2]) of 38.71 °C and an Activity (Rattus norvegicus [3]) of 38.81 °C. The Activity (Rattus norvegicus [4]) was 38.81 °C, the Activity (Rattus norvegicus [5]) was 38.91 °C and the LD50 at 24 h [6] was 370 mg/kg. For the same compound, the Activity (Rattus norvegicus [7]) was 7.17%, the Activity (Mus musculus [8]) was 8.8% and the Activity (Mus musculus [9]) was 8.8%. It also gave an Activity (Mus musculus [10]) of 3.57%.

In the case of `CC(=O)Nc1ccc(O)cc1` [ACETAMINOPHEN], the Activity (Rattus norvegicus [11]) was 37.38 °C, the Activity (Rattus norvegicus [12]) was 37.2 °C and the Activity (Rattus norvegicus [13]) was 37.27 °C. For the same compound, the Activity (Rattus norvegicus [14]) was 37.16 °C.

Compound `Cc1ccc(-c2cc(C(F)(F)F)nn2-c2ccc(S(N)(=O)=O)cc2)cc1` [CELECOXIB] has an Activity (Rattus norvegicus [15]) of 39.67%.

Compound `O=C([O-])Cc1ccccc1Nc1c(Cl)cccc1Cl.[Na+]` [DICLOFENAC SODIUM] has an Activity (Mus musculus [16]) of 74.02%, an Activity (Mus musculus [17]) of 75.24% and an Activity (Mus musculus [18]) of 68.44%. For the same compound, the Activity (Mus musculus [19]) was 55.82%.

Source: ChEMBL document CHEMBL1154088, “Synthesis, biological evaluation and docking studies of novel benzopyranone congeners for their expected activity as anti-inflammatory, analgesic and antipyretic agents” (Bioorg Med Chem, 2009)
